Data published in patent publication US6451334B2, “Compositions and administration of compositions for the treatment of blood disorders” (priority 1997, dated 2002).
“Also recorded” adds a separate entry of the source. Like-named read-outs stand apart in the source and are kept apart here.

Tests used:
cell viability = experiment: DNA fragmentation assays (cell viability); assay type: cell-based
Excerpt: Normal cell viability, the viability of an untransformed or uninfected cell, can be determined from analyzing the effects of the composition on one or more biological processes of the cell. Detrimental interference with one or more of these cellular processes becomes significant when the process becomes abnormal. Examples of quantitatable and qualifiable biological processes include the processes of cell division, protein synthesis, nucleic acid (DNA or RNA) synthesis, nucleic acid (principally DNA) fragmentation and apoptosis. Others processes include specific enzyme activities, the activities of the cellular transportation systems such as the transportation of amino acids by system A (neutral), system B (acidic) or system C (basic), and the expression of a cell surface protein. […] Abnormal cell division, for example, can be mitosis which occurs too rapidly, as in a malignancy, or unstably, resulting in programmed cell death or apoptosis, detected by increased DNA degradation. The determination of abnormal cell viability can be made on comparison with untreated control cells. […] Increased cell viability can be determined by those of ordinary skill in the art using, for example, DNA fragmentation analysis. […] Determinations of increased or decreased viability can also be concluded from an analysis of the results of multiple different assays. Where multiple tests provide conflicting results, accurate conclusions can still be drawn by those of ordinary skill based upon the cell type, the correctness or correlation of the tests with actual conditions and the type of composition.

K562 cells = experiment: Treatment of K562 cells and analysis of globin mRNA by primer extension; assay type: cell-based, human; conditions: for Radioactivity Alpha Globin (α) mRNA / Radioactivity Fetal Globin (γ) mRNA / γ/α / stimulating γ globin compared to control cells (ranking in words): K562 cells; for Radioactivity Alpha Globin (α) mRNA / Radioactivity Fetal Globin (γ) mRNA: phosphorimager; for γ/α: ratio of globin mRNA radioactivity; for fold induction at 1000 µM: Homo sapiens, K562, 72 h, read-out: increase in γ-globin mRNA over constitutive levels in untreated control K562 cells; for pattern of globin gene stimulation in K562 cells: α and γ globin mRNA
Experimental: K562 cells kindly provided by Dr. George Atweh were cultured with 10% fetal bovine serum (Sigma, St. Louis, Mo.) and RPMI media (Grand Island Biological Company, Grand Island, N.Y.) in a humidified atmosphere with 5% CO2/95% air. Compounds were tested at a final concentration of 1 mM at neutral pH and included butyric acid, phenoxyacetic acid, dimethylbutric acid, alpha-methylhydrocionamic acid, 2,3, and 4-methoxyhydrocinnamic acid, dihydrocinnamic acid, methoxycinnamic acid, methoxyacetic acid, phenylpropionic acid, amino hydrocinnamic acid, DL β- and DL-βamino-n-butyric acid, cinnamic acid, and 2 methylhydrocinnamic acid (Aldrich Chemical Company, St. Louis, Mo.). Additional compounds studied included dimethylhydroxy acetic acid, dimethylpropionic acid, dimethylphenoxyacetic acid, and dimethylmethoxyacetic acid. After three days of culture with these agents, mRNA was purified and α, β, and γ globin mRNA was analyzed by primer extension using oligonucleotide primers and quantitation on a PhosphoImager as previously described.

[1] = test system: Mononuclear cells from patients with sickle cell disease or thalassemia trait; experiment: Erythroid colony (BFU-E) cultures in methylcellulose; assay type: cell-based, human; conditions: 0.2-0.5 mM, optimal growth factors; for % Increase over control: BFU-E
Experimental: Mononuclear cells from patients with sickle cell disease or thalassemia trait were isolated on Ficoll Hypague, washed, and cultured in methylcellulose media with optimal concentrations of hematopoietic growth factors IL-3, GM-CSF, Stem Cell Factor, IL6, 3 U/ml Eiythropoietin, insulin, bovine serum albumin, and 0.2-0.5 mM concentrations of test compounds of derivatives of cinnamic acid and hydrocinnamic acid. […] The following illustrates some representative cultures: […]

32D cells = experiment: Proliferation studies using 32D cells at low IL-3; assay type: cell-based, murine; conditions: 0.5 U/ml IL-3, 1 mM; listed as butyrate
Experimental: 32D cells were cultured in RPMI media with 10% fetal bovine serum (Sigma, St. Louis, Mo.), […] glutamine (GIBCO), and murine IL3 (20 U/ml) (Biosource International). Growth factor controls used included the standard concentration of IL-3 required for proliferation of these cells (25 U/ml) and a 50-fold lower concentration (0.5 U/ml), and erythropoietin (3 U/ml) or G-CSF ( U/ml), (Amgen, Thousand Oaks, Calif.). The test compounds were added at final concentrations of 1 mM. As a cell density of 2.5−10×10^5 is necessary for growth of this cell line, this density was maintained by passing the cells at three day intervals or by concentrating the cells when apoptosis occurred. Proportions of cells which were viable or apoptotic, and the fraction of cells in each part of the cell cycle was assessed by incubating the cells with Trypan blue and enumeration, and with propidium iodide incubation and FACScan analysis as previously described.
The effects of the representative compounds which have been synthesized or selected for resistance to beta oxidative metabolism and glucuronidation in stimulating γ globin gene expression in a human erythroid-like cell line and for their effects on cell growth utilizing a multi-lineage murine hematopoietic cell line, 32D. This cell line is dependent on high concentrations of IL-3 for growth. […]

[2] = test system: c-myb, c-myc, actin, and histone H3; experiment: Northern blots of growth related genes in 32D cells; assay type: cell-based, murine; conditions: low IL-3, 1 mM, Northern blot
Experimental: Cell proliferation stimulation is transgenic mice, baboons, human cell culture, and a murine multi-lineage cell line by the active compounds, genes whose expression is increased early in cell proliferation induced by hematopoietic growth factors such as IL-3 and erythropoietin were examined. RNA was extracted from 32D cells treated with the compounds for one day and for 11 days. Northern blots were prepared with probes for the early growth related genes c-myb and c-myc and beta actin and histone H3 were used as controls. Increased expression of c-myb occurs transiently, and early, when growth is induced by erythropoietin and IL-3.
The first lane is from cells cultured in no IL-3, lane 2 in 25 U/ml murine IL3 and lanes 3-18 have low IL-3 concentration (0.5 U/ml) plus test compounds. […] All compounds were tested here at 1 mM. […] 20 ug of total RNA from each sample were subjected to Northern blot analysis using specific probes for c-myb, c-myc, actin, and histone H3. One day and 11-day samples from the same treated cells were quantitated by PhosphoImager.

[3] = test system: mice transgenic for a human beta globin locus YAC containing a silenced gamma globin gene; experiment: In vivo experiments in mice transgenic for the human beta globin gene locus
Experimental: Three prototype compounds, methylhydrocinnamic acid (MHCA), phenoxyacetic acid (PAA), and dimethylbutyric acid PMB), were administered at doses from 100 to 250 mg/kg in two daily doses by intraperitoneal injection to mice transgenic for a human beta globin locus YAC containing a silenced gamma globin gene. Reticulocytes, newly synthesized red blood cells, were counted daily and non-alpha globin in MRNA was analyzed by Rnase protection. Only 50 microliters of blood were removed daily for testing. A 5 to 10-fold increase in reticulocytes and a 1.7-2.4 fold increase in gamma globin mRNA was observed within one week of therapy with the three protype compounds. In contrast, control mice to which normal saline was administered, with the same degree of phlebotomy for testing, had no significant changes in reticulocytes or globin in mRNA.

in vivo = conditions: monkey, po
Experimental: Chronic indwelling venous and arterial catheters which were maintained using sterile technique for blood sampling. Compounds were administered by nasogastric tube and blood was collected to determine drug plasma levels at regular intervals following single oral doses. […] The test compounds were analyzed after ether extraction of the plasma, separation by HPLC, and quantitated by comparison to a spilled internal standard of heptanoic acid according to previously described methods.

[4] = test system: system A transport of amino acids; experiment: System A transport of amino acids; assay type: cell-based
Excerpt: Normal cell viability, the viability of an untransformed or uninfected cell, can be determined from analyzing the effects of the composition on one or more biological processes of the cell. Detrimental interference with one or more of these cellular processes becomes significant when the process becomes abnormal. Examples of quantitatable and qualifiable biological processes include the processes of cell division, protein synthesis, nucleic acid (DNA or RNA) synthesis, nucleic acid (principally DNA) fragmentation and apoptosis. Others processes include specific enzyme activities, the activities of the cellular transportation systems such as the transportation of amino acids by system A (neutral), system B (acidic) or system C (basic), and the expression of a cell surface protein. […] Abnormal cell division, for example, can be mitosis which occurs too rapidly, as in a malignancy, or unstably, resulting in programmed cell death or apoptosis, detected by increased DNA degradation. The determination of abnormal cell viability can be made on comparison with untreated control cells. Compositions preferably increase normal cell viability. Increased cell viability can be determined by those of ordinary skill in the art using, for example, DNA fragmentation analysis. […]

[5] = primer extension, 1 mM, three days of culture, FIG. 1

SMILES	Radioactivity Alpha Globin (α) mRNA (K562 cells; 1 mM)	Radioactivity Fetal Globin (γ) mRNA (K562 cells; 1 mM)	γ/α (K562 cells; 1 mM)	fold induction at 1000 µM (K562 cells; [5])	also measured
CC(C)C(N)=O [isobutyramide, reference compound]					cell viability / DNA fragmentation (cell viability): decrease cell viability
COc1ccc(CCC(=O)O)cc1OC [ST 38, 3-3,4-dimethoxy phenyl propionic acid]	191985	1858358	9.7		
COc1cc(C=CC(=O)O)cc(OC)c1O [ST 44, 3,5 dimethoxy 4-hydroxy cinnamic acid]				2.4 to 26	Mean BFU-E/culture 4 cultures averaged (per 0.2 million cells) [1]: 215; % Increase over control [1]: 11%
CCCC(=O)O [Butyric acid, butyric acid, reference compound]				2	stimulating γ globin compared to control cells (ranking in words) (K562 cells; 1 mM): most active; pattern of globin gene stimulation in K562 cells (K562 cells): stimulated expression of both α and γ globin MRNA; effect on 32D cells with low IL-3 (32D cells): decreased cell proliferation and cell death; also recorded: Cells die
Cc1ccccc1CCC(=O)O [ST 33, 2 methyl hydrocinnamic acid]	89473	1388899	15.5	2.4 to 26	Mean BFU-E/culture 4 cultures averaged (per 0.2 million cells) [1]: 212; % Increase over control [1]: 20.5%; stimulating γ globin compared to control cells (ranking in words) (K562 cells; 1 mM): most active
CCCC(=O)OCC [butyric acid ethyl ester]					cell viability / DNA fragmentation (cell viability): reduce DNA fragmentation
O=C(O)/C=C/c1ccccc1 [ST 47, transcinnamic acid]				2.4 to 26	Mean BFU-E/culture 4 cultures averaged (per 0.2 million cells) [1]: 322; % Increase over control [1]: 18%
COc1ccccc1C=CC(=O)O [ST 32, 2-methoxycinnamic acid]	36751	957146	26.0	2.4 to 26	stimulating γ globin compared to control cells (ranking in words) (K562 cells; 1 mM): most active
NC(CC(=O)O)c1ccccc1 (stereo not drawn) [ST 30, β-aminohydrocinnamic acid]					c-myb induced [2]: 2 fold
COc1ccccc1/C=C\C(=O)O [ST 34, cis-2-methoxycinnamic acid]	105452	2255627	21.4	2.4 to 26	pattern of globin gene stimulation in K562 cells (K562 cells): decreased expression of α globin
COc1ccc(CC(=O)O)cc1OC [ST 37, 3,4 dimethoxy phenyl acetic acid]	106875	1206529	11.3	2.4 to 26	
O=C(O)COc1ccccc1 [PAA, phenoxyacetic acid]	507148	2755891	5.4		Reticulocytes (fold increase) ([3]; 100 to 250 mg/kg in two daily doses, intraperitoneal, within one week): 2.5 to 7 fold; half-life (in vivo): 6.5 h; fold induction at 1000 µM (K562 cells): 2.4 to 26; stimulating γ globin compared to control cells (ranking in words) (K562 cells; 1 mM): most active; pattern of globin gene stimulation in K562 cells (K562 cells): stimulated expression of both α and γ globin MRNA; cell viability / DNA fragmentation (cell viability): reduce DNA fragmentation; system A transport of amino acids [4]: do not significantly alter
COc1ccc(OC)c(CC(=O)O)c1 [ST 40, 2,5 {dimethoxy phenyl} acetic acid]	85941	1240100	14.4		
COc1ccc(C=CC(=O)O)cc1 [4 Methoxycinnamic acid]					Mean BFU-E/culture 4 cultures averaged (per 0.2 million cells) [1]: 191; % Increase over control [1]: 8.5%
CCC(N)C(=O)O (stereo not drawn) [alpha amino-n-butyric acid, reference compound]					inducibility of gamma (fetal) globin in the transgenic mice ([3]; mouse, in vivo): has not been readily inducible
